Results taken from ChEMBL document CHEMBL1139192, “Novel bis(indolyl)maleimide pyridinophanes that are potent, selective inhibitors of glycogen synthase kinase-3” (Bioorg Med Chem Lett, 2007).

Experiments:
Homo sapiens = organism: Homo sapiens; assay: Residual activity of human CDK1/Cyclin B at 1 uM relative to control
[1] = target: RAC-beta serine/threonine-protein kinase (Homo sapiens) (UniProt P31751); assay: Residual activity of human PKBbeta at 1 uM relative to control
[2] = target: Tyrosine-protein kinase Lyn (Homo sapiens) (UniProt P07948); assay: Inhibition of human Lyn at 1 uM relative to control; values are per cent of control
[3] = target: Tyrosine-protein kinase Fes/Fps (Homo sapiens) (UniProt P07332); assay: Inhibition of human Fes at 1 uM relative to control; values are per cent of control
[4] = target: T1, Serine/threonine-protein kinase Sgk1 (Homo sapiens) (UniProt O00141); assay: Inhibition of human SGK at 1 uM relative to control; values are per cent of control
T1 sequence (whole entry): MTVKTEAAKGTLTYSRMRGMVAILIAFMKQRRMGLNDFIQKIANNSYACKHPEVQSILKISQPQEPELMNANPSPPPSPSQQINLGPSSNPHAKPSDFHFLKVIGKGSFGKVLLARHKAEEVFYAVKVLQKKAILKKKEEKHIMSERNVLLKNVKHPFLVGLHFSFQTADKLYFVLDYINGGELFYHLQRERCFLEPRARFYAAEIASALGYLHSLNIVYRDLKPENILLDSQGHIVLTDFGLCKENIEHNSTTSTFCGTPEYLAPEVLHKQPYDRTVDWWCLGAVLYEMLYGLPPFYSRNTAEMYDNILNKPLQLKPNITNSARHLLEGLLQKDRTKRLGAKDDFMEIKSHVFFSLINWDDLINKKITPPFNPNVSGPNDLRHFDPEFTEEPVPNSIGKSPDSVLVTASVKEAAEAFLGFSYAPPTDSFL

[5] = test system: Tyrosine-protein kinase ABL1 (Homo sapiens), P00519 [T315I]; assay: Residual activity of human Abl T315I mutant at 1 uM relative to control
[6] = target: T2, Serine/threonine-protein kinase Nek2 (Homo sapiens) (UniProt P51955); assay: Inhibition of human NEK2 at 1 uM relative to control; values are per cent of control
T2 sequence (whole entry): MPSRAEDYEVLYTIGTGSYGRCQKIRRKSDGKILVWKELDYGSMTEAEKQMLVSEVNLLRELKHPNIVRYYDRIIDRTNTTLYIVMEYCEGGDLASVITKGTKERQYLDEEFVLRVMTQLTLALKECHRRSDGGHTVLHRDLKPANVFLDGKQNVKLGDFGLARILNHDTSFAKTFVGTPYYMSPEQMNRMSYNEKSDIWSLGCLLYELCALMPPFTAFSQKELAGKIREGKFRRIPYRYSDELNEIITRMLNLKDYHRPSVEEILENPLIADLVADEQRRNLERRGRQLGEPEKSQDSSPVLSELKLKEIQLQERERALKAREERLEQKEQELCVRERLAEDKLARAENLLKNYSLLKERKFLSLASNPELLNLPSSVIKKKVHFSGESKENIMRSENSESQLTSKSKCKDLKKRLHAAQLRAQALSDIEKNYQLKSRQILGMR

[7] = target: Ribosomal protein S6 kinase alpha-1 (Rattus norvegicus) (UniProt Q63531); assay: Inhibition of rat Rsk1 at 1 uM relative to control; values are per cent of control
[8] = target: Proto-oncogene tyrosine-protein kinase ROS (Homo sapiens) (UniProt P08922); assay: Inhibition of human Ros kinase at 1 uM relative to control; values are per cent of control
[9] = target: Ribosomal protein S6 kinase alpha-1 (Homo sapiens, UniProt Q15418); assay: Inhibition of human Rsk1 at 1 uM relative to control; values are per cent of control
[10] = target: Casein kinase I isoform delta (Homo sapiens) (UniProt P48730); assay: Inhibition of CK1delta at 1 uM relative to control; values are per cent of control
[11] = target: Protein kinase C gamma type (Homo sapiens) (UniProt P05129); assay: Residual activity of human PKCgamma at 1 uM relative to control
[12] = target: T3, MAP kinase-activated protein kinase 5 (Homo sapiens) (UniProt Q8IW41); assay: Inhibition of human PRAK at 1 uM relative to control; values are per cent of control
T3 sequence (whole entry): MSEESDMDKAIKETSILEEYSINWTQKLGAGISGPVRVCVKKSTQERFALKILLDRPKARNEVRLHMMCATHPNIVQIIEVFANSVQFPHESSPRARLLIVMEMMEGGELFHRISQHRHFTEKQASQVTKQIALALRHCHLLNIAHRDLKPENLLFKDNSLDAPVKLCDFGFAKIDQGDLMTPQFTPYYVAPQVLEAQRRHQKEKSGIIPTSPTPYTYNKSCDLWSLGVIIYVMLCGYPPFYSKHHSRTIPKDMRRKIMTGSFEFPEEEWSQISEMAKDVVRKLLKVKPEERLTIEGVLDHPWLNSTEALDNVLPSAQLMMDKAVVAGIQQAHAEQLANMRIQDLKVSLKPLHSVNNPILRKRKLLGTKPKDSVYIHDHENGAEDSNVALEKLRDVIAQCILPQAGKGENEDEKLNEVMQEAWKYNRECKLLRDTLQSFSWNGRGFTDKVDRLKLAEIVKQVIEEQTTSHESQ

[13] = target: Rho-associated protein kinase 2 (Rattus norvegicus) (UniProt Q62868); assay: Residual activity of rat ROCK2 at 1 uM relative to control
[14] = target: Protein kinase C alpha type (Homo sapiens) (UniProt P17252); assay: Residual activity of human PKCalpha at 1 uM relative to control
[15] = target: Hepatocyte growth factor receptor (Homo sapiens) (UniProt P08581); assay: Inhibition of human Met at 1 uM relative to control; values are per cent of control
[16] = target: Platelet-derived growth factor receptor beta (Homo sapiens) (UniProt P09619); assay: Inhibition of human PDGFRbeta at 1 uM relative to control; values are per cent of control

Sequence of RAC-beta serine/threonine-protein kinase (Homo sapiens) (P31751 whole entry): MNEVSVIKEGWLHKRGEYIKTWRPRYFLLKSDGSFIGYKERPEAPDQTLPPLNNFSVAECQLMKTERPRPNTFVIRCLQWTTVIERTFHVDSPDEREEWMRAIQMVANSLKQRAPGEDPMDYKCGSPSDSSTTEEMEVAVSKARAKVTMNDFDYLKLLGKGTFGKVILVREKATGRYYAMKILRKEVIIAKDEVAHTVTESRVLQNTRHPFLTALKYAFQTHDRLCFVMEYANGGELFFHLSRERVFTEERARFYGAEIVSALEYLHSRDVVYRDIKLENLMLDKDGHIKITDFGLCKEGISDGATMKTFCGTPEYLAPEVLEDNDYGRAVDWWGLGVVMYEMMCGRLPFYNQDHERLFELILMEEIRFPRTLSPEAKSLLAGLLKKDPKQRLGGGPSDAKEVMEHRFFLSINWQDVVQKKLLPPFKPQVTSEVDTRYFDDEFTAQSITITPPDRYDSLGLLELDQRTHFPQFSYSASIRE
Sequence of Proto-oncogene tyrosine-protein kinase ROS (Homo sapiens) (P08922 whole entry): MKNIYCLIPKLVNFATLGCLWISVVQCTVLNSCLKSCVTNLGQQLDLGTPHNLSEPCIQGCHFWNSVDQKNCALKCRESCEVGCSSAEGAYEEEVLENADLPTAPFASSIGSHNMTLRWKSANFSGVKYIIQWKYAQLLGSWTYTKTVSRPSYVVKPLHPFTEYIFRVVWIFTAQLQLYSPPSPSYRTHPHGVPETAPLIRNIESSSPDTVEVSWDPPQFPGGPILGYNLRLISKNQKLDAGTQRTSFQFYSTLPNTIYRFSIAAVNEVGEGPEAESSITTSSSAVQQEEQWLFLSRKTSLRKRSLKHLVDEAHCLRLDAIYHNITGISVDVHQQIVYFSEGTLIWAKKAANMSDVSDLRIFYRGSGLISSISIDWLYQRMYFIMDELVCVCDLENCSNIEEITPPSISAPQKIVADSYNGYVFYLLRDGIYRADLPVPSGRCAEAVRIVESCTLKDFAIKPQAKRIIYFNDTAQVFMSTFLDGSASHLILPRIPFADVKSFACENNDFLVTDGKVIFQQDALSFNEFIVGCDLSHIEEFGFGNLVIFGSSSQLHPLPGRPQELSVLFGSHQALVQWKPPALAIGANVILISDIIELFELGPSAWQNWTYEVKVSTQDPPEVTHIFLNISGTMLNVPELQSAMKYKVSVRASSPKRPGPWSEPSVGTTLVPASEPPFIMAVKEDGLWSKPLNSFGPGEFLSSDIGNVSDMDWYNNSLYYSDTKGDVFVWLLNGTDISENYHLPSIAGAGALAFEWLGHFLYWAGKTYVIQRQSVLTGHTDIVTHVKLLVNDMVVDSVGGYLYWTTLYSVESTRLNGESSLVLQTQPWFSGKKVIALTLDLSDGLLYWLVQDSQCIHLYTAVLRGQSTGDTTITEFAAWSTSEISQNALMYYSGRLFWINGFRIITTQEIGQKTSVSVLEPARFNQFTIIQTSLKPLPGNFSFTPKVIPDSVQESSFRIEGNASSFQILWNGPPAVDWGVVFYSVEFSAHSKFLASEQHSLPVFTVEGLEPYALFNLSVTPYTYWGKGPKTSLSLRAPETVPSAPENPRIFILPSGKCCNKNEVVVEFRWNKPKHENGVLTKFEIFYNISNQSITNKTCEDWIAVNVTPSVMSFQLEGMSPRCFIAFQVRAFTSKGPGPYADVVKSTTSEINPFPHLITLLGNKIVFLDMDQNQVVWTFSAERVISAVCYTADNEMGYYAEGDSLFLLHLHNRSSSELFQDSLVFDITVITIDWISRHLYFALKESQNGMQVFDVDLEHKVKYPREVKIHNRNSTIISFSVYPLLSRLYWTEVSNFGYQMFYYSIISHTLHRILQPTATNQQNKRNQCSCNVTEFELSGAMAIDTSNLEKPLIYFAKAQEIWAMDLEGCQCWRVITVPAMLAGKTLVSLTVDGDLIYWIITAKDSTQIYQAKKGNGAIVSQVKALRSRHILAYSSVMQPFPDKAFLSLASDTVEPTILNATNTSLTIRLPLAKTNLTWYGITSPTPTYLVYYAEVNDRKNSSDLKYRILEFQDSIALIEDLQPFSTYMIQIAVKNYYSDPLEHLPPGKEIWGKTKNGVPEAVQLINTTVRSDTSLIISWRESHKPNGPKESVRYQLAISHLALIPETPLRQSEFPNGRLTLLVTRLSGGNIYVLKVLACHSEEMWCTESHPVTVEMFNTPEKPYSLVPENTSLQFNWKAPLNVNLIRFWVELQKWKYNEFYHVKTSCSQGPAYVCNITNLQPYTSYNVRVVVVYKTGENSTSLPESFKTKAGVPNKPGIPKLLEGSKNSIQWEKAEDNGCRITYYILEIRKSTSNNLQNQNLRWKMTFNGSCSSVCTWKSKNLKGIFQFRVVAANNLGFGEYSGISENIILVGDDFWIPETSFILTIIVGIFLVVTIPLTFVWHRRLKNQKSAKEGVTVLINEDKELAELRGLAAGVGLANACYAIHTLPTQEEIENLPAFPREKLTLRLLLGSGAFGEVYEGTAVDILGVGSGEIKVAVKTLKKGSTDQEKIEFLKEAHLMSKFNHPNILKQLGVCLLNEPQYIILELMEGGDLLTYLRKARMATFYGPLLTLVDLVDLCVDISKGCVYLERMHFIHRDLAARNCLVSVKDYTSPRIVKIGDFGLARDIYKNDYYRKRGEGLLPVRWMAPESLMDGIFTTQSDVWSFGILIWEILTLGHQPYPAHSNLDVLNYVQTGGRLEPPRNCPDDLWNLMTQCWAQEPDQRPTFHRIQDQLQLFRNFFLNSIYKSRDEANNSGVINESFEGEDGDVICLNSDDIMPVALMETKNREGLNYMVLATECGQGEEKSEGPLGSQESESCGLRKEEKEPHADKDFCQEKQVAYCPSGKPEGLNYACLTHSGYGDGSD
Sequence of Tyrosine-protein kinase Lyn (Homo sapiens) (P07948 2-512 limits assumed): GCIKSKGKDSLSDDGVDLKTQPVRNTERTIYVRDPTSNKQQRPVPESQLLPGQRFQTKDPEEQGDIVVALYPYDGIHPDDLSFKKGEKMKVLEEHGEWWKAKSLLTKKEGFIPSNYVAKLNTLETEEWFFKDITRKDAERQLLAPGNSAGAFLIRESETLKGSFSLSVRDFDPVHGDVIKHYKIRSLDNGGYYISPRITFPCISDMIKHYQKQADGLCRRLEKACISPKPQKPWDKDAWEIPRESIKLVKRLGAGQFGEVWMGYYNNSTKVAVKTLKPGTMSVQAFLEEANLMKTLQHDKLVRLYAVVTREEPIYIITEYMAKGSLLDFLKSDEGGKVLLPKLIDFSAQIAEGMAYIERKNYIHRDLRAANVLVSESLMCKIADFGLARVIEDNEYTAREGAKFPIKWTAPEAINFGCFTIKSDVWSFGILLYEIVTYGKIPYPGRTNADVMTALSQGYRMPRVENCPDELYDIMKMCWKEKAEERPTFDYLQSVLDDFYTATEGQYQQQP
Sequence of Ribosomal protein S6 kinase alpha-1 (Q15418 whole entry, canonical isoform): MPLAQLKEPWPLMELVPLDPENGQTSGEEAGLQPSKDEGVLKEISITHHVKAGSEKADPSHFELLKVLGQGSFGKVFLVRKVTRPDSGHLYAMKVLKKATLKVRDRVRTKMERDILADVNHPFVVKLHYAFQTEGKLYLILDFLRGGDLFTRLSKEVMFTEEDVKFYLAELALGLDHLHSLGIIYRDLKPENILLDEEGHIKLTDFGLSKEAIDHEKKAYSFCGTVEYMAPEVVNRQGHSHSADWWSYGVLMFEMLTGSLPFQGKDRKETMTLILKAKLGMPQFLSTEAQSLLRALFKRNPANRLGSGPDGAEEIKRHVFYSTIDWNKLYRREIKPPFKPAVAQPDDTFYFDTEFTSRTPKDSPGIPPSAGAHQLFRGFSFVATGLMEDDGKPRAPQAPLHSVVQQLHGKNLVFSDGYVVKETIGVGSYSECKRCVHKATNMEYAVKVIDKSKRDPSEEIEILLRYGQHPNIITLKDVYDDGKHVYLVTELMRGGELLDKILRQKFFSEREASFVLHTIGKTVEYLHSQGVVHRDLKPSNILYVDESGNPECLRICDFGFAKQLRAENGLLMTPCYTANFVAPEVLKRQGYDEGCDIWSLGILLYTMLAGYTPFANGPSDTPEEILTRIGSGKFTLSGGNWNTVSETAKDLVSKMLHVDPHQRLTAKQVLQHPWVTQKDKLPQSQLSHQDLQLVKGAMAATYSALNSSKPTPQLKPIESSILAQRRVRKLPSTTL
Sequence of Tyrosine-protein kinase Fes/Fps (Homo sapiens) (P07332 whole entry): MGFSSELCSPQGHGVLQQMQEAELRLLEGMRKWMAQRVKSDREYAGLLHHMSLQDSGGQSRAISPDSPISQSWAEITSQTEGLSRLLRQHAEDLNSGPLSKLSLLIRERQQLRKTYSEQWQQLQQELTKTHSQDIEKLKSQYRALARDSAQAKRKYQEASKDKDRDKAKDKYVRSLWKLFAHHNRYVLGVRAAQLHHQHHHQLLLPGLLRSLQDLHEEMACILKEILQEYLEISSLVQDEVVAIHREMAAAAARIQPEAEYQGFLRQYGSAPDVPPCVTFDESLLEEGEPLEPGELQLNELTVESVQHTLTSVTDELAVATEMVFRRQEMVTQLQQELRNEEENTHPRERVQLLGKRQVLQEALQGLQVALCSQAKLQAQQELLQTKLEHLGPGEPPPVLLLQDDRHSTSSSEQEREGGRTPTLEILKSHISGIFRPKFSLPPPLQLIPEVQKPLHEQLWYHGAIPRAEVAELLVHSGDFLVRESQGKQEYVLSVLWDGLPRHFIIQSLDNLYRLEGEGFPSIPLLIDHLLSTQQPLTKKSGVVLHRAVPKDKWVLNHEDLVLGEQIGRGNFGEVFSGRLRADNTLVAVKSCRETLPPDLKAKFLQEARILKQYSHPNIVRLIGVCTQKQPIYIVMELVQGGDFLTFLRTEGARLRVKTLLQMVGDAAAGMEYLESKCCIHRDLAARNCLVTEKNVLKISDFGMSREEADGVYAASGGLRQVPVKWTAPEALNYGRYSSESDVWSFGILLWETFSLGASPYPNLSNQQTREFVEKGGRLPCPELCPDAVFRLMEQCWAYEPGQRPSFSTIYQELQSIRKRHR

residual activity (Homo sapiens)	residual activity [1]	residual activity [2]	residual activity [3]	residual activity [4]	residual activity [5]	residual activity [6]	residual activity [7]	residual activity [8]	residual activity [9]	residual activity [10]	residual activity [11]	residual activity [12]	residual activity [13]	residual activity [14]	residual activity [15]	residual activity [16]	Compound
78%	86%	107%	107%	93%	100%	104%	37%	79%	39%	107%	91%	88%	101%	68%	121%	147%	CN(C)c1nc2ccc1CCCn1cc(c3ccccc31)C1=C(C(=O)NC1=O)c1cn(c3ccccc13)CC2
98%	118%	76%	133%	105%	79%	102%	7%	108%	15%	111%	107%	96%	92%	74%	132%	101%	CN(C)c1cc2cc(n1)CCCn1cc(c3ccccc31)C1=C(C(=O)NC1=O)c1cn(c3ccccc13)CCC2
–	102%	78%	130%	93%	103%	99%	67%	105%	85%	109%	102%	102%	91%	83%	132%	105%	O=C1NC(=O)C2=C1c1cn(c3ccccc13)CCCc1ccc(c(N3CCCC3)n1)CCCn1cc2c2ccccc21
80%	104%	87%	139%	109%	77%	105%	5%	117%	15%	112%	99%	101%	83%	82%	129%	103%	O=C1NC(=O)C2=C1c1cn(c3ccccc13)CCCc1cc(nc(N3CCCC3)c1)CCCn1cc2c2ccccc21
